Measurements as given in US20170050988A1, “DOTAM DERIVATIVES FOR THERAPEUTIC USE” (priority 2013, published 2017).
Starred links: 1 amine or outer side, 2 acyl side, 3 side chain; linkers in the order of their positions; H or OH if unused. Positions of bridges follow the written chain, without caps; N, C: chain ends. Non-standard residues stand in square brackets, D forms with d. Residues, ends and D or L forms follow the SMILES beside them. Chains are numbered I, II in the order given. *: point of attachment. X3 = NCCOCCOCCNC(=O)CN1CCN(CC(=O)NCCOCCOCCN[*:1])CCN(CC(=O)NCCOCCOCCN)CCN(CC(=O)NCCOCCOCCN[*:2])CC1; X2 = CC(C)C[C@H](N[*:1])[C@H](O)CC(=O)[*:2]; Sta = CC(C)C[C@H](N)[C@@H](O)CC(=O)O; Isovaleryl = CC(C)CC(=O)*

Tests used:
Cathepsin D = target: T1, Cathepsin D (Homo sapiens, UniProt P07339); assay: Cathepsin D enzyme assay; type: biochemical
T1 construct: purchased Biomol Se-199
T1 sequence (P07339 65-412): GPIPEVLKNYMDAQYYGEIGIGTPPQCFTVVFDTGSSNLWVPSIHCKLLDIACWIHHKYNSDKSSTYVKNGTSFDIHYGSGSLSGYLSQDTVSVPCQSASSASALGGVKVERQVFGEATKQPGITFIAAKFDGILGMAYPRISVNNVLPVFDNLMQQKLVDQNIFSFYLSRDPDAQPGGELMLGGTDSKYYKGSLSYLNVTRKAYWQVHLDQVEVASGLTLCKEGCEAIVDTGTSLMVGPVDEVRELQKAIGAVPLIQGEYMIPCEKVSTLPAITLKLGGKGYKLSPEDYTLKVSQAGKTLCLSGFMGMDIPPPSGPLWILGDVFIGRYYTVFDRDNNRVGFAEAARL
Method: For quantification of Cathepsin D inhibitory activity, an enzymatic assay was used that measures the turnover of a quenched, fluorescenctly-labeled, Cathepsin D-cleavable, peptide substrate over time.
Specifically, 13 ng of purified Cathepsin D enzyme (Biomol; Cat.No. Se-199) was administered per well of a 96 well plate, substance/inhibitor of interest was added and the mixture incubated for 10 min. at 37° C. Then, the enzymatic reaction was started by addition of fluorescenctly-labeled, Cathepsin D-Substrat ([…] (7-Methoxycoumarin-4-yl)-acetyl-Pro-Leu-Gly-Leu-(3 [2,4-dinitrophenyl]-L-2,3-diaminopropionyl)-Ala-Arg-NH2 (Bachem M-1895). The reaction volume amounts to 30 μl and contains 50 mM acetic acid, 200 mM NaCl and 0.003% Brij 35 and was adjusted to pH 4.5 with acetic acid. By cleavage of the peptide chain, the […] is released and the emission of fluorescence dye is measured using excitation/emission wavelengths ([…]) on a Tecan Spectrafluor Plus—instrument at 37° C. for 10 min. For the determination of the compound dose response, a 10 mM DMSO stock solution was diluted and tested in a ten-point, three-fold dilution series run in duplicate beginning at 30 μM final concentration. Data were analyzed using a four-parameter curve fit with a fixed minimum and maximum experimentally defined as the average positive and negative controls on each plate.

[1] = tested on: pig articular cartilage explants; assay: Ex vivo GAG release model with pig articular cartilage explants; type: cell-based; conditions: explants pre-incubated with 1 μM inhibitor 24 h, then washed
[2] = Solubility in phosphate buffer; type: physicochemical; conditions: phosphate buffer at pH 7.4; read-out: solubility
[3] = Solubility in DMSO after lyophilization; type: physicochemical
Method: 1 equiv. […] DIPEA (10 λl, 60 μmol). The reaction mixture was stirred under argon at room temperature for 2 days. The solvent was directly purified by preparative HPLC to give HHY-328 (4.3 mg, Yield: 22.6%) as a white powder.

[4] = T1 of contrast agent in DPBS; type: physicochemical; conditions: 0.2 mM in DPBS
Method: To explore the potential of cartilage targeting agents as practical MRI contrast agents for accurate diagnostic imaging, we investigated HHY-316Gd in vivo with healthy rats. As an essentially non-binding control, contrast agent HHY-341Gd (T1=1368±10 ms, 0.2 mM in DPBS) with the non-binding scrambled peptide sequence YRLGRW and acetylated amine groups was used as reference. MRI was performed using a 4.7 T Bruker BioSpec whole body MR imager. Male skeletally mature Lewis rats were anesthetized (by Isoflurane), fixed in supine position and both knees were placed within a transmitting/receiving wrist coil. […] In the HHY-316Gd applied knees there is a significant MRI signal enhancement of the articular and growth plate cartilages which consist principally of collagen II and proteoglycan. The signal intensity (SI) in the articular cartilage and growth plate increased 86% and 77% after 24 hours following administration of HHY-316Gd and increased 84% and 85% at 72 hours after intra-articular injection, respectively (FIGS. 6-11). […]
To assist histological examination of joint slices after termination of the study, we decided to co-administer a second probe, HHY-338 (T1=11493±27 ms, 0.2 mM in DPBS), containing a Cy5.5 moiety. […] Chondrophyte/osteophyte regions were examined in sections stained with safranin O/fast green and recorded using a Zeiss Miraxscan microscope (FIG. 12b).

For `CC(=O)N[C@@H](Cc1c[nH]c2ccccc12)C(=O)N[C@@H](Cc1ccc(O)cc1)C(=O)N[C@@H](CCCNC(=N)N)C(=O)NCC(=O)N[C@@H](CCCNC(=N)N)C(=O)N[C@@H](CC(C)C)C(=O)NCCOCCOCCNC(=O)CN1CCN(CC(=O)NCCOCCOCCN)CCN(CC(=O)NCCOCCOCCNC(=O)C[C@@H](O)[C@H](CC(C)C)NC(=O)[C@H](C)NC(=O)C[C@H](O)[C@H](CC(C)C)NC(=O)[C@@H](NC(=O)[C@@H](NC(=O)CC(C)C)C(C)C)C(C)C)CCN(CC(=O)NCCOCCOCCN)CC1` [HHY-327, AcWYRGRL-DOTA-Pepstatin A] (I: Ac-WYRGRL / II: Isovaleryl-VV[Sta]A[X2]; linker I:C-II:C via X3), the IC50 (Cathepsin D) was 2.1 nM, the “inhibition of GAG release” value ([1]; 24 hours after stimulation at pH 5.0) was 41% and the “inhibition of GAG release” value ([1]; 48 hours after stimulation at pH 5.0) was “no differentiating effect”. For the same compound, the “effect on acid-stimulated GAG release / degradation (FIG. 3)” value ([1]; pH 5.0) was “very impressive effect” and the solubility [2] was greater than 5920 µg/mL.
For AcWYRGRL-DOTA-(Pepstatin A)3 [HHY-328], the “solubility in DMSO” value [3] was “only slightly soluble”.
AcWYRGRL-DOTA-Cy5.5-[Gd3+] [HHY-338] gave a T1 [4] of 11493 ± 27 ms.
AcYRLGRW-DOTA-[Gd3^+] [HHY-341Gd] showed a T1 [4] of 1368 ± 10 ms.
